Reference: patent publication US11851426B2, “Bicyclic amines as CDK2 inhibitors” (Incyte Corporation, priority 2019, dated 2023)

target: CDK2/Cyclin E1 (Homo sapiens (Human), UniProt P24941); assay: CDK2/Cyclin E1 HTRF enzyme activity assay; assay type: biochemical; conditions: 1 mM ATP; CDK2/Cyclin E1 0.25 nM; 60 minutes at room temperature
Outline: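 HTRF read-out of 4E-BP1 (Thr37/46) peptide phosphorylation (ULight peptide 50 nM) by 0.25 nM baculovirus-made GST-CDK2/FLAG-Cyclin E1, with ATP at 50 μM or 1 mM, 60 min at room temperature, pH 7.5. Eu-anti-phospho antibody with EDTA quench; IC50 fitted by three- or four-parameter dose-response.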

Structure (SMILES)	IC50 [nM]
C[C@@H]1CN(S(C)(=O)=O)CC[C@@H]1Nc1nc2ccc(-c3cn[nH]c3)c(OCC3CCCC3)n2n1 [Example 77, 5-(Cyclopentylmethoxy)-N-((3R,4S)-3-methyl-1-(methylsulfonyl)piperidin-4-yl)-6-(1H-pyrazol-4-yl)-[1,2,4]triazolo[1,5-a]pyridin-2-amine]	≤ 20
CCS(=O)(=O)N1CC[C@H](Nc2nc3cnc(-c4cn[nH]c4)c(OC(C)C)n3n2)[C@H](C)C1 [Example 88, N-((3R,4S)-1-(Ethylsulfonyl)-3-methylpiperidin-4-yl)-5-isopropoxy-6-(1H-pyrazol-4-yl)-[1,2,4]triazolo[1,5-a]pyrazin-2-amine]	≤ 20
CCCOc1c(-c2cn[nH]c2)ncn2nc(NC3CCN(S(C)(=O)=O)CC3)nc12 [Example 48, N-(1-(Methylsulfonyl)piperidin-4-yl)-8-propoxy-7-(1H-pyrazol-4-yl)-[1.2.4]triazolo[1,5-c]pyrimidin-2-amine]	≤ 20
[2H]C([2H])([2H])C(Oc1c(-c2cn[nH]c2)ncc2nc(N[C@H]3CCN(S(C)(=O)=O)C[C@H]3C)nn12)C([2H])([2H])[2H] [Example 138, N-((3R,4S)-3-Methyl-1-(methylsulfonyl)piperidin-4-yl)-5-((propan-2-yl-1,1,1,3,3,3-d6)oxy)-6-(1H-pyrazol-4-yl)-[1,2,4]triazolo[1,5-a]pyrazin-2-amine]	≤ 20
CCOc1c(-c2cn[nH]c2)ccn2nc(N[C@H]3CCN(S(=O)(=O)c4cnn(C)n4)C[C@H]3C)nc12 [Example 21, 8-ethoxy-N-((3R,4S)-3-methyl-1-((2-methyl-2H-1,2,3-triazol-4-yl)sulfonyl)piperidin-4-yl)-7-(1H-pyrazol-4-yl)-[1,2,4]triazolo[1,5-a]pyridin-2-amine]	≤ 20
CC1CCN(c2c(-c3cn[nH]c3)ncn3nc(NC4CCN(S(C)(=O)=O)CC4)nc23)CC1 [Example 34, 8-(4-methylpiperidin-1-yl)-N-(1-(methylsulfonyl)piperidin-4-yl)-7-(1H-pyrazol-4-yl)-[1,2,4]triazolo[1,5-c]pyrimidin-2-amine]	≤ 20
CS(=O)(=O)N1CCC(Nc2nc3cnc(-c4cn[nH]c4)c(N4CCC[C@H](F)C4)n3n2)CC1 [Example 129, (S)-5-(3-Fluoropiperidin-1-yl)-N-(1-(methylsulfonyl)piperidin-4-yl)-6-(1H-pyrazol-4-yl)-[1,2,4]triazolo[1,5-a]pyrazin-2-amine]	≤ 20
[2H]C([2H])([2H])C([2H])(Oc1c(-c2cn[nH]c2)ncc2nc(N[C@H]3CCN(S(C)(=O)=O)C[C@H]3C)nn12)C([2H])([2H])[2H] [Example 139, N-((3R,4S)-3-Methyl-1-(methylsulfonyl)piperidin-4-yl)-5-((propan-2-yl-d7)oxy)-6-(1H-pyrazol-4-yl)-[1,2,4]triazolo[1,5-a]pyrazin-2-amine]	≤ 20
CS(=O)(=O)N1CCC(Nc2nc3c(OCC(F)F)c(-c4cn[nH]c4)ncn3n2)CC1 [Example 45, 8-(2,2-difluoroethoxy)-N-(1-(methylsulfonyl)piperidin-4-yl)-7-(1H-pyrazol-4-yl)-[1,2,4]triazolo[1,5-c]pyrimidin-2-amine]	≤ 20
C[C@@H]1CN(S(C)(=O)=O)CC[C@@H]1Nc1nc2cnc(-c3cn[nH]c3)c(OC3CC3)n2n1 [Example 109, 5-Cyclopropoxy-N-((3R,4S)-3-methyl-1-(methylsulfonyl)piperidin-4-yl)-6-(1H-pyrazol-4-yl)-[1,2,4]triazolo[1,5-a]pyrazin-2-amine]	≤ 20
C[C@@H]1CN(S(C)(=O)=O)CC[C@@H]1Nc1nc2cnc(-c3cn[nH]c3)c(N3CCCC(F)(F)C3)n2n1 [Example 127, 5-(3,3-Difluoropiperidin-1-yl)-N-((3R,4S)-3-methyl-1-(methylsulfonyl)piperidin-4-yl)-6-(1H-pyrazol-4-yl)-[1,2,4]triazolo[1,5-a]pyrazin-2-amine]	≤ 20
CC1CC(Oc2c(-c3cn[nH]c3)ncc3nc(N[C@H]4CCN(S(C)(=O)=O)C[C@H]4C)nn23)C1 (stereo partly drawn) [Example 107, N-((3R,4S)-3-Methyl-1-(methylsulfonyl)piperidin-4-yl)-5-(3-methylcyclobutoxy)-6-(1H-pyrazol-4-yl)-[1,2,4]triazolo[1,5-a]pyrazin-2-amine]	≤ 20
CCOc1c(-c2cn[nH]c2)ccn2nc(N[C@H]3CCN(S(=O)(=O)c4cnn(C)c4)C[C@H]3C)nc12 [Example 20, 8-ethoxy-N-((3R,4S)-3-methyl-1-((1-methyl-1H-pyrazol-4-yl)sulfonyl)piperidin-4-yl)-7-(1H-pyrazol-4-yl)-[1,2,4]triazolo[1,5-a]pyridin-2-amine]	≤ 20
C[C@@H]1CN(S(C)(=O)=O)CC[C@@H]1Nc1nc2cnc(-c3cn[nH]c3)c(OC3CCOCC3)n2n1 [Example 90]	≤ 20
CCOc1c(-c2cn[nH]c2)ccn2nc(NC3CCN(S(C)(=O)=O)CC3)nc12 [Example 2, 8-ethoxy-N-(1-(methylsulfonyl)piperidin-4-yl)-7-(1H-pyrazol-4-yl)-[1.2.4]triazolo[1,5-a]pyridin-2-amine]	≤ 20
CCS(=O)(=O)N1CC[C@H](Nc2nc3c(OC(C)C)c(-c4cn[nH]c4)ncn3n2)[C@H](C)C1 [Example 54, N-((3R,4S)-1-(Ethylsulfonyl)-3-methylpiperidin-4-yl)-8-isopropoxy-7-(1H-pyrazol-4-yl)-[1,2,4]triazolo[1,5-c]pyrimidin-2-amine]	≤ 20
CC(C)Oc1c(-c2cn[nH]c2)ncn2nc(N[C@H]3CCN(S(=O)(=O)CCCCNCC(F)F)C[C@H]3C)nc12 [Example 64, N-((3R,4S)-1-((4-((2,2-Difluoroethyl)amino)butyl)sulfonyl)-3-methylpiperidin-4-yl)-8-isopropoxy-7-(1H-pyrazol-4-yl)-[1,2,4]triazolo[1,5-c]pyrimidin-2-amine]	≤ 20
CC(C)Oc1c(-c2cn[nH]c2)ncn2nc(N[C@H]3CCN(S(=O)(=O)C4CC4)C[C@H]3C)nc12 [Example 53, N-((3R,4S)-1-(Cyclopropylsulfonyl)-3-methylpiperidin-4-yl)-8-isopropoxy-7-(1H-pyrazol-4-yl)-[1,2,4]triazolo[1,5-c]pyrimidin-2-amine]	≤ 20
CC(C)COc1c(-c2cn[nH]c2)ncc2nc(NC3CCN(S(C)(=O)=O)CC3)nn12 [Example 104, 5-Isobutoxy-N-(1-(methylsulfonyl)piperidin-4-yl)-6-(1H-pyrazol-4-yl)-[1,2,4]triazolo[1,5-a]pyrazin-2-amine]	≤ 20
CS(=O)(=O)N1CCC(Nc2nc3c(OC4CCOCC4)c(-c4cn[nH]c4)ccn3n2)CC1 [Example 5, N-(1-(methylsulfonyl)piperidin-4-yl)-7-(1H-pyrazol-4-yl)-8-((tetrahydro-2H-pyran-4-yl)oxy)-[1,2,4]triazolo[1,5-a]pyridin-2-amine]	≤ 20

Next, values leading:

IC50 [nM]	Structure (SMILES)
≤ 20	CS(=O)(=O)N1CCC(Nc2nc3c(-c4cccc(C(F)(F)F)c4)c(-c4cn[nH]c4)ncn3n2)CC1 [Example 35, N-(1-(methylsulfonyl)piperidin-4-yl)-7-(1H-pyrazol-4-yl)-8-(3-(trifluoromethyl)phenyl)-[1,2,4]triazolo[1,5-c]pyrimidin-2-amine]
≤ 20	C[C@@H]1CN(S(=O)(=O)C2CC2)CC[C@@H]1Nc1nc2ccc(-c3cn[nH]c3)c(N3CCCCC3)n2n1 [Example 85, N-((3R,4S)-1-(Cyclopropylsulfonyl)-3-methylpiperidin-4-yl)-5-(piperidin-1-yl)-6-(1H-pyrazol-4-yl)-[1,2,4]triazolo[1,5-a]pyridin-2-amine]
≤ 20	CC(C)Oc1c(-c2cn[nH]c2)ncc2nc(N[C@H]3CCN(S(C)(=O)=O)C[C@H]3C)nn12 [Example 87, 5-Isopropoxy-N-((3R,4S)-3-methyl-1-(methylsulfonyl)piperidin-4-yl)-6-(1H-pyrazol-4-yl)-[1,2,4]triazolo[1,5-a]pyrazin-2-amine]
≤ 20	CC(C)Oc1c(-c2cn[nH]c2)ncn2nc(NC3CCN(S(C)(=O)=O)CC3)nc12 [Example 14, 8-isopropoxy-N-(1-(methylsulfonyl)piperidin-4-yl)-7-(1H-pyrazol-4-yl)-[1,2,4]triazolo[1,5-c]pyrimidin-2-amine]
≤ 20	C[C@@H]1CN(S(C)(=O)=O)CC[C@@H]1Nc1nc2c(OC3CCOCC3)c(-c3cn[nH]c3)ccn2n1 [Example 42, N-((3R,4S)-3-methyl-1-(methylsulfonyl)piperidin-4-yl)-7-(1H-pyrazol-4-yl)-8-((tetrahydro-2H-pyran-4-yl)oxy)-[1,2,4]triazolo[1,5-a]pyridin-2-amine]
≤ 20	CC(C)Oc1c(-c2cn[nH]c2)ncn2nc(N[C@H]3CCN(S(=O)(=O)CCCN(C)C(C)C)C[C@H]3C)nc12 [Example 57, 8-Isopropoxy-N-((3R,4S)-1-((3-(isopropyl(methyl)amino)propyl)sulfonyl)-3-methylpiperidin-4-yl)-7-(1H-pyrazol-4-yl)-[1,2,4]triazolo[1,5-c]pyrimidin-2-amine]
≤ 20	CCCc1c(-c2cn[nH]c2)ccn2nc(NC3CCN(S(C)(=O)=O)CC3)nc12 [Example 37, N-(1-(methylsulfonyl)piperidin-4-yl)-8-propyl-7-(1H-pyrazol-4-yl)-[1.2.4]triazolo[1,5-a]pyridin-2-amine]
≤ 20	CCOc1c(-c2cn[nH]c2)ccn2nc(N[C@H]3CCN(S(=O)(=O)CCN4CC[C@@H](O)C4)C[C@H]3C)nc12 [Example 19, (R)-1-(2-(((3R,4S)-4-((8-ethoxy-7-(1H-pyrazol-4-yl)-[1,2,4]triazolo[1,5-a]pyridin-2-yl)amino)-3-methylpiperidin-1-yl)sulfonyl)ethyl)pyrrolidin-3-ol]
≤ 20	CS(=O)(=O)N1CCC(Nc2nc3ccc(-c4cn[nH]c4)c(OCC(F)F)n3n2)CC1 [Example 80, 5-(2,2-Difluoroethoxy)-N-(1-(methylsulfonyl)piperidin-4-yl)-6-(1H-pyrazol-4-yl)-[1,2,4]triazolo[1,5-a]pyridin-2-amine]
